From PubChem BioAssay AID1259411 (Chemical Carcinogenesis Research Information System (CCRIS), 2018) come the findings set out here.

Structures are written as SMILES. Activity calls are given as the source filed them. How the calls were made is not given here.

This data set has as its system rodent carcinogenicity bioassays, tumor incidence. In words: CCRIS carcinogenicity studies. The procedure, abridged:
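Archive of carcinogenicity, mutagenicity, tumor promotion and tumor inhibition results drawn from journals, NCI reports and other sources, expert-reviewed; covers 1985-2011 and is no longer updated.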

On to `CC(=O)CN(C)N=O`, for which the carcinogen call was “active; positive” (Species: HAMSTER, Strain/Sex: SYRIAN/FEMALE, Route: GAVAGE, Dose: 0, 0.5 MG IN 0.1 ML WATER 2/WK FOR 22 WK FOR A TOTAL DOSE OF 22 MG (STUDY DURATION: 45 WK), Tumor Site: Type of Lesion: LIVER: HEMANGIOSARCOMA, CHOLANGIOCELLULAR CARCINOMA, CHOLANGIOCELLULAR ADENOMA, NASAL MUCOSA: CARCINOMA); “active; positive” (Species: HAMSTER, Strain/Sex: SYRIAN/FEMALE, Route: GAVAGE, Dose: 0, 1 MG IN 0.1 ML WATER 2/WK FOR 11 WK FOR A TOTAL DOSE OF 22 MG (STUDY DURATION: 45 WK), Tumor Site: Type of Lesion: LIVER: TUMOR, NASAL MUCOSA: CARCINOMA); “active; positive” (Species: HAMSTER, Strain/Sex: SYRIAN/FEMALE, Route: GAVAGE, Dose: 0, 2 MG IN 0.2 ML WATER 1/WK FOR 14 WK FOR A TOTAL DOSE OF 28 MG (STUDY DURATION: 17 WK), Tumor Site: Type of Lesion: LIVER: HEPATOCELLULAR ADENOMA, CHOLANGIOCELLULAR CARCINOMA OR ADENOMA, NASAL MUCOSA: CARCINOMA OR ADENOMA); “active; positive” (Species: RAT, Strain/Sex: F344/FEMALE, Route: GAVAGE, Dose: 0, 4 MG/WK FOR A TOTAL DOSE OF 0.5 MMOL (STUDY DURATION: 40 WK), Tumor Site: Type of Lesion: ESOPHAGUS: TUMOR); “active; positive” (Species: RAT, Strain/Sex: F344/MALE, Route: GAVAGE, Dose: 0, 2, 4, 10 MG/WK FOR A TOTAL DOSE OF 0.5, 0.5, 0.9 MMOL (STUDY DURATION: 70 WK), Dose: 0, 2, 4, 10 MG/WK FOR A TOTAL DOSE OF 0.5, 0.5, 0.9 MMOL (STUDY DURATION: 70 WK), Tumor Site: Type of Lesion: ESOPHAGUS: TUMOR).

As to `CNC(=O)ON=CC(C)(C)SC`, the carcinogen call runs as follows: (Species: MOUSE, Strain/Sex: B6C3F1/FEMALE, Route: ORAL, Dose: 0, 2, 6 PPM IN DIET, Dose: 0, 2, 6 PPM IN DIET) “inactive; negative”; (Species: MOUSE, Strain/Sex: B6C3F1/MALE, Route: ORAL, Dose: 0, 2, 6 PPM IN DIET, Dose: 0, 2, 6 PPM IN DIET) “inactive; negative”; (Species: RAT, Strain/Sex: F344/FEMALE, Route: ORAL, Dose: 0, 2, 6 PPM IN DIET, Dose: 0, 2, 6 PPM IN DIET) “inactive; negative”; (Species: RAT, Strain/Sex: F344/MALE, Route: ORAL, Dose: 0, 2, 6 PPM IN DIET, Dose: 0, 2, 6 PPM IN DIET) “inactive; negative”.

As to `C=C(C)CCl`, the carcinogen call is “active; positive” (Species: MOUSE, Strain/Sex: B6C3F1/FEMALE, Route: GAVAGE, Dose: 0, 100, 200 MG/KG IN CORN OIL 5 D/WK FOR 103 WK (STUDY DURATION: 2 YR), Dose: 0, 100, 200 MG/KG IN CORN OIL 5 D/WK FOR 103 WK (STUDY DURATION: 2 YR), Tumor Site: Type of Lesion: FORESTOMACH: EPITHELIAL HYPERPLASIA, SQUAMOUS CELL PAPILLOMA); “active; positive” (Species: MOUSE, Strain/Sex: B6C3F1/FEMALE, Route: GAVAGE, Dose: 0, 100, 200 MG/KG IN CORN OIL 5 D/WK FOR 103 WK, Dose: 0, 100, 200 MG/KG IN CORN OIL 5 D/WK FOR 103 WK, Tumor Site: Type of Lesion: FORESTOMACH: SQUAMOUS CELL PAPILLOMA, SQUAMOUS CELL PAPILLOMA OR CARCINOMA); “active; positive” (Species: MOUSE, Strain/Sex: B6C3F1/MALE, Route: GAVAGE, Dose: 0, 100, 200 MG/KG IN CORN OIL 5 D/WK FOR 103 WK (STUDY DURATION: 2 YR), Dose: 0, 100, 200 MG/KG IN CORN OIL 5 D/WK FOR 103 WK (STUDY DURATION: 2 YR), Tumor Site: Type of Lesion: FORESTOMACH: EPITHELIAL HYPERPLASIA, SQUAMOUS CELL PAPILLOMA, SQUAMOUS CELL CARCINOMA); “active; positive” (Species: MOUSE, Strain/Sex: B6C3F1/MALE, Route: GAVAGE, Dose: 0, 100, 200 MG/KG IN CORN OIL 5 D/WK FOR 103 WK, Dose: 0, 100, 200 MG/KG IN CORN OIL 5 D/WK FOR 103 WK, Tumor Site: Type of Lesion: FORESTOMACH: SQUAMOUS CELL PAPILLOMA, SQUAMOUS CELL CARCINOMA); “active; positive” (Species: MOUSE, Strain/Sex: BDF1/FEMALE, Route: INHALATION, Dose: 0, 50, 100, 200 PPM 6 HR/D 5 D/WK FOR 104 WK (STUDY DURATION: 104 WK), Dose: 0, 50, 100, 200 PPM 6 HR/D 5 D/WK FOR 104 WK (STUDY DURATION: 104 WK), Tumor Site: Type of Lesion: HARDERIAN GLAND: ADENOMA); “inactive; negative” (Species: MOUSE, Strain/Sex: BDF1/MALE, Route: INHALATION, Dose: 0, 50, 100, 200 PPM 6 HR/D 5 D/WK FOR 104 WK (STUDY DURATION: 104 WK), Dose: 0, 50, 100, 200 PPM 6 HR/D 5 D/WK FOR 104 WK (STUDY DURATION: 104 WK)). Further, the carcinogen call by setting is: (Species: RAT, Strain/Sex: F344/FEMALE, Route: GAVAGE, Dose: 0, 75, 150 MG/KG IN CORN OIL 5 D/WK FOR 103 WK (STUDY DURATION: 2 YR), Dose: 0, 75, 150 MG/KG IN CORN OIL 5 D/WK FOR 103 WK (STUDY DURATION: 2 YR), Tumor Site: Type of Lesion: FORESTOMACH: BASAL CELL HYPERPLASIA, SQUAMOUS CELL PAPILLOMA) “active; positive”; (Species: RAT, Strain/Sex: F344/FEMALE, Route: GAVAGE, Dose: 0, 75, 150 MG/KG IN CORN OIL 5 D/WK FOR 103 WK, Dose: 0, 75, 150 MG/KG IN CORN OIL 5 D/WK FOR 103 WK, Tumor Site: Type of Lesion: FORESTOMACH: PAPILLOMA) “active; positive”; (Species: RAT, Strain/Sex: F344/MALE, Route: GAVAGE, Dose: 0, 75, 150 MG/KG IN CORN OIL 5 D/WK FOR 103 WK (STUDY DURATION: 2 YR), Dose: 0, 75, 150 MG/KG IN CORN OIL 5 D/WK FOR 103 WK (STUDY DURATION: 2 YR), Tumor Site: Type of Lesion: FORESTOMACH: BASAL CELL OR EPITHELIAL HYPERPLASIA, SQUAMOUS CELL PAPILLOMA) “active; positive”; (Species: RAT, Strain/Sex: F344/MALE, Route: GAVAGE, Dose: 0, 75, 150 MG/KG IN CORN OIL 5 D/WK FOR 103 WK, Dose: 0, 75, 150 MG/KG IN CORN OIL 5 D/WK FOR 103 WK, Tumor Site: Type of Lesion: FORESTOMACH: PAPILLOMA) “active; positive”.

Turning to `Cc1ccc(N)cc1`, the carcinogen call (Species: MOUSE, Route: ORAL, Tumor Site: Type of Lesion: LIVER) was “active; positive”.

With `COc1ccc(OC(=O)N(CC(=O)O)Cc2ccc(OCCc3nc(-c4ccccc4)oc3C)cc2)cc1`, the carcinogen call runs as follows: (Species: Mouse, Strain/Sex: Crl:CD-1 (ICR)BR/Female (60/group), Route: Oral, Dose: 0, 1, 5, 20 mg/kg (initial group) or 0, 40 mg/kg (supplemental group) by gavage daily for up to 105 wks, vehicle cont, Dose: 0, 1, 5, 20 mg/kg (initial group) or 0, 40 mg/kg (supplemental group) by gavage daily for up to 105 wks, vehicle cont) “inactive; negative (slight increases in hemangiosarcoma (multiple organs) and mammary glan”; (Species: Mouse, Strain/Sex: Crl:CD-1 (ICR)BR/Male (60/group), Route: Oral, Dose: 0, 1, 5, 20 mg/kg (initial group) or 0, 40 mg/kg (supplemental group) by gavage daily for up to 105 wks, vehicle cont, Dose: 0, 1, 5, 20 mg/kg (initial group) or 0, 40 mg/kg (supplemental group) by gavage daily for up to 105 wks, vehicle cont, Tumor Site: Type of Lesion: GALLBLADDER: adenoma (1/60 at 20 mg/kg, 2/60 at 40 mg/kg), not significant) “inactive; negative (although statistical significance was not obtained, the authors consid”; (Species: Rat, Strain/Sex: Hsd:Sprague Dawley SD/Female (65/group), Route: Oral, Dose: 0, 1, 5, 30, 50 mg/kg by gavage daily for up to 105 wks, vehicle controls administered alkaline PEG-400, Dose: 0, 1, 5, 30, 50 mg/kg by gavage daily for up to 105 wks, vehicle controls administered alkaline PEG-400, Tumor Site: Type of Lesion: SUBCUTANEOUS TISSUE: lipoma (50 mg/kg only). UTERUS: Squamous cell carcinoma, adenoma and carcinoma, and squamous cell p, Tumor Site: Type of Lesion: SUBCUTANEOUS TISSUE: lipoma (50 mg/kg only). UTERUS: Squamous cell carcinoma, adenoma and carcinoma, and squamous cell p) “active; positive (weak response)”; (Species: Rat, Strain/Sex: Hsd:Sprague Dawley SD/Male (65/group), Route: Oral, Dose: 0, 1, 5, 30, 50 mg/kg by gavage daily for up to 105 wks, vehicle controls administered alkaline PEG-400, Dose: 0, 1, 5, 30, 50 mg/kg by gavage daily for up to 105 wks, vehicle controls administered alkaline PEG-400, Tumor Site: Type of Lesion: URINARY BLADDER: transitional cell carcinoma and papilloma at 5, 30, and 50 mg/kg associated with increased urinary soli) “active; positive, muraglitazar reported to be a peroxisome proliferator-activated recept”.

Regarding `C[C@H]1[C@H](c2ccc(Cl)cc2)SC(=O)N1C(=O)NC1CCCCC1`, the carcinogen call was “inactive; negative” (Species: Rat, Strain/Sex: Fischer 344/Female (70/Group), Route: Oral, Dose: 0, 60, 430, 3000 ppm in diet for 24 mo, study duration 24 mo, Dose: 0, 60, 430, 3000 ppm in diet for 24 mo, study duration 24 mo) and “active; positive. (department of pesticides regulation reviewer describes as possible ad” (Species: Rat, Strain/Sex: Fischer 344/Male (70/Group), Route: Oral, Dose: 0, 60, 430, 3000 ppm in diet for 24 mo, study duration 24 mo, Dose: 0, 60, 430, 3000 ppm in diet for 24 mo, study duration 24 mo, Tumor Site: Type of Lesion: Mammary gland: fibroadenoma (0, 1, 2, 6)).
